Assay results as given in ChEMBL document CHEMBL4118132, “Novel 5-methyl-2-phenylphenanthridium derivatives as FtsZ-targeting antibacterial agents from structural simplification of natural product sanguinarine” (2018).
Calls of active or inactive are those of the source. No cut-off for these calls is given here.

What was measured:
Bacillus pumilus [1] = experiment: Antibacterial activity against penicillin-susceptible Bacillus pumilus ATCC 63202 after 24 hrs by broth microdilution method; assay type: functional; conditions: ATCC 63202, 24 h
Staphylococcus aureus [2] = experiment: Bactericidal activity against penicillin-susceptible Staphylococcus aureus ATCC 25923 assessed as bacterial levels at 32 ug/ml after 4 hrs by time-kill assay (reference value: 6.13 to 6.71 log10CFU/ml); assay type: functional
[3] = tested on: Staphylococcus epidermidis; experiment: Antibacterial activity against penicillin-resistant Staphylococcus epidermidis clinical isolate after 24 hrs by broth microdilution method; assay type: functional
Staphylococcus aureus [4] = experiment: Potency index, ratio of ciprofloxacin MIC to test compound MIC for penicillin-susceptible Staphylococcus aureus ATCC 25923; assay type: functional
Streptococcus pyogenes [5] = experiment: Potency index, ratio of ciprofloxacin MIC to test compound MIC for penicillin-resistant Streptococcus pyogenes; assay type: functional
Bacillus pumilus [6] = experiment: Potency index, ratio of oxacillin sodium MIC to test compound MIC for penicillin-susceptible penicillin-susceptible Bacillus pumilus ATCC 63202; assay type: functional
Staphylococcus aureus [7] = experiment: Bactericidal activity against penicillin-susceptible Staphylococcus aureus ATCC 25923 after 24 hrs by flat colony counting method; assay type: functional; conditions: ATCC 25923, 24 h
Staphylococcus aureus [8] = experiment: Potency index, ratio of ciprofloxacin MIC to test compound MIC for penicillin-resistant Staphylococcus aureus clinical isolate; assay type: functional
Streptococcus pyogenes [9] = experiment: Potency index, ratio of ciprofloxacin MIC to test compound MIC for penicillin-susceptible Streptococcus pyogenes; assay type: functional
Staphylococcus aureus [10] = experiment: Bactericidal activity against penicillin-susceptible Staphylococcus aureus ATCC 25923 assessed as bacterial levels at 8 ug/ml after 6 hrs by time-kill assay (reference value: 6.13 to 7.54 log10CFU/ml); assay type: functional
Bacillus subtilis [11] = experiment: Potency index, ratio of oxacillin sodium MIC to test compound MIC for penicillin-susceptible Bacillus subtilis ATCC 9372; assay type: functional
Staphylococcus aureus [12] = experiment: Bactericidal activity against penicillin-susceptible Staphylococcus aureus ATCC 25923 assessed as bacterial levels at 16 ug/ml after 4 hrs by time-kill assay (reference value: 6.13 to 6.71 log10CFU/ml); assay type: functional
Staphylococcus aureus [13] = experiment: Bactericidal activity against penicillin-susceptible Staphylococcus aureus ATCC 25923 assessed as bacterial levels at 8 ug/ml after 1 hr by time-kill assay (reference value: 6.13 to 6.14 log10CFU/ml); assay type: functional
Staphylococcus aureus [14] = experiment: Bactericidal activity against penicillin-susceptible Staphylococcus aureus ATCC 25923 assessed as bacterial levels at 8 ug/ml after 2 hrs by time-kill assay (reference value: 6.13 to 6.17 log10CFU/ml); assay type: functional
Staphylococcus aureus [15] = experiment: Bactericidal activity against penicillin-susceptible Staphylococcus aureus ATCC 25923 assessed as bacterial levels at 16 ug/ml after 12 hrs by time-kill assay (reference value: 6.13 to 8.01 log10CFU/ml); assay type: functional
Staphylococcus aureus [16] = experiment: Antibacterial activity against penicillin-resistant Staphylococcus aureus clinical isolate after 24 hrs by broth microdilution method; assay type: functional
Streptococcus pyogenes [17] = experiment: Antibacterial activity against penicillin-susceptible Streptococcus pyogenes after 24 hrs by broth microdilution method; assay type: functional
Bacillus subtilis [18] = experiment: Potency index, ratio of ciprofloxacin MIC to test compound MIC for penicillin-susceptible Bacillus subtilis ATCC 9372; assay type: functional
Bacillus pumilus [19] = experiment: Potency index, ratio of ciprofloxacin MIC to test compound MIC for penicillin-susceptible penicillin-susceptible Bacillus pumilus ATCC 63202; assay type: functional
Staphylococcus aureus [20] = experiment: Bactericidal activity against penicillin-susceptible Staphylococcus aureus ATCC 25923 assessed as bacterial levels at 8 ug/ml after 24 hrs by time-kill assay (reference value: 6.13 to 8.34 log10CFU/ml); assay type: functional
Bacillus subtilis [21] = experiment: Antibacterial activity against penicillin-susceptible Bacillus subtilis ATCC 9372 after 24 hrs by broth microdilution method; assay type: functional; conditions: ATCC 9372, 24 h
Staphylococcus aureus [22] = experiment: Bactericidal activity against penicillin-susceptible Staphylococcus aureus ATCC 25923 assessed as bacterial levels at 8 ug/ml after 4 hrs by time-kill assay (reference value: 6.13 to 6.71 log10CFU/ml); assay type: functional
Staphylococcus aureus [23] = experiment: Antibacterial activity against penicillin-susceptible Staphylococcus aureus ATCC 25923 after 24 hrs by broth microdilution method; assay type: functional; conditions: ATCC 25923, 24 h
[24] = tested on: Staphylococcus epidermidis; experiment: Potency index, ratio of ciprofloxacin MIC to test compound MIC for penicillin-resistant Staphylococcus epidermidis clinical isolate; assay type: functional
Staphylococcus aureus [25] = experiment: Bactericidal activity against penicillin-susceptible Staphylococcus aureus ATCC 25923 assessed as bacterial levels at 32 ug/ml after 24 hrs by time-kill assay (reference value: 6.13 to 8.34 log10CFU/ml); assay type: functional
[26] = tested on: Staphylococcus epidermidis; experiment: Potency index, ratio of oxacillin sodium MIC to test compound MIC for penicillin-resistant Staphylococcus epidermidis clinical isolate; assay type: functional
Staphylococcus aureus [27] = experiment: Antibacterial activity against methicillin-resistant Staphylococcus aureus ATCC 43300 after 24 hrs by broth microdilution method; assay type: functional; conditions: ATCC 43300, 24 h
Staphylococcus aureus [28] = experiment: Bactericidal activity against penicillin-susceptible Staphylococcus aureus ATCC 25923 assessed as bacterial levels at 16 ug/ml after 1 hr by time-kill assay (reference value: 6.13 to 6.14 log10CFU/ml); assay type: functional
[29] = biological target: T1, Cell division protein FtsZ (Bacillus subtilis) (UniProt A5Z1V5); experiment: Inhibition of FtsZ in penicillin-susceptible Bacillus subtilis ATCC 9372 assessed as increase in length of bacteria at 0.125 ug/ml after 5 hrs by phase-contrast light microscopic method
T1 sequence (whole entry): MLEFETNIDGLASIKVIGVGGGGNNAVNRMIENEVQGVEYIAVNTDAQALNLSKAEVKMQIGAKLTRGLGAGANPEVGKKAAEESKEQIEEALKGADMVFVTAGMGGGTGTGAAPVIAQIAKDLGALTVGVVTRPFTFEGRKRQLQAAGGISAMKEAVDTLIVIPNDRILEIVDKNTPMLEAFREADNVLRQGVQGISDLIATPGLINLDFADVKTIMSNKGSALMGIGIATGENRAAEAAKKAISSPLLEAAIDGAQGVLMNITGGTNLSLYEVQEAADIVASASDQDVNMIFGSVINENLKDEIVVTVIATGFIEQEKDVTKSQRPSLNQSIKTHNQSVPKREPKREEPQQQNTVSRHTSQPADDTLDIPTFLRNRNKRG

Staphylococcus aureus [30] = experiment: Bactericidal activity against penicillin-susceptible Staphylococcus aureus ATCC 25923 assessed as bacterial levels at 16 ug/ml after 6 hrs by time-kill assay (reference value: 6.13 to 7.54 log10CFU/ml); assay type: functional
Streptococcus pyogenes [31] = experiment: Potency index, ratio of oxacillin sodium MIC to test compound MIC for penicillin-resistant Streptococcus pyogenes; assay type: functional
Streptococcus pyogenes [32] = experiment: Antibacterial activity against penicillin-resistant Streptococcus pyogenes after 24 hrs by broth microdilution method; assay type: functional
Staphylococcus aureus [33] = experiment: Potency index, ratio of ciprofloxacin MIC to test compound MIC for methicillin-resistant Staphylococcus aureus ATCC 43300; assay type: functional
Pseudomonas aeruginosa = experiment: Antibacterial activity against penicillin-susceptible Pseudomonas aeruginosa ATCC 27853 after 24 hrs by broth microdilution method; assay type: functional; conditions: ATCC 27853, 24 h

For `Cc1cc(-c2ccc(C(F)(F)F)cc2)cc2c3ccccc3c[n+](C)c12.[Cl-]`, the MIC (Bacillus pumilus [1]) was 0.06 µg/mL, the Activity (Staphylococcus aureus [2]) was 4 log10CFU/ml and the MIC [3] was 0.125 µg/mL. It also gave a Ratio (Staphylococcus aureus [4]) of 133, a Ratio (Streptococcus pyogenes [5]) of 32 and a Ratio (Bacillus pumilus [6]) of 533. It also gave an MBC (Staphylococcus aureus [7]) of 16 µg/mL, a Ratio (Staphylococcus aureus [8]) of 64 and a Ratio (Streptococcus pyogenes [9]) of 8. For the same compound, the Activity (Staphylococcus aureus [10]) was 6.07 log10CFU/ml, the Ratio (Bacillus subtilis [11]) was 67 and the Activity (Staphylococcus aureus [12]) was 5.75 log10CFU/ml. For the same compound, the Activity (Staphylococcus aureus [13]) was 6.05 log10CFU/ml, the Activity (Staphylococcus aureus [14]) was 6.06 log10CFU/ml and the Activity (Staphylococcus aureus [15]) was 4 log10CFU/ml. The MIC (Staphylococcus aureus [16]) was 0.25 µg/mL, the MIC (Streptococcus pyogenes [17]) was 1 µg/mL and the Ratio (Bacillus subtilis [18]) was 33. For the same compound, the Ratio (Bacillus pumilus [19]) was 133, the Activity (Staphylococcus aureus [20]) was 5.88 log10CFU/ml and the MIC (Bacillus subtilis [21]) was 0.06 µg/mL. It also gave an Activity (Staphylococcus aureus [22]) of 6.04 log10CFU/ml, an MIC (Staphylococcus aureus [23]) of 0.06 µg/mL and a Ratio [24] of 512. The Activity (Staphylococcus aureus [25]) was 0 log10CFU/ml, the Ratio [26] was 512 and the MIC (Staphylococcus aureus [27]) was 0.25 µg/mL. The Activity (Staphylococcus aureus [28]) was 5.89 log10CFU/ml, the inhibition [29] was “Active” and the Activity (Staphylococcus aureus [30]) was 5.42 log10CFU/ml. It also gave a Ratio (Streptococcus pyogenes [31]) of 32, an MIC (Streptococcus pyogenes [32]) of 2 µg/mL and a Ratio (Staphylococcus aureus [33]) of 64. The MIC (Pseudomonas aeruginosa) was over 64 µg/mL.
